Data taken from patent US20130040331A1, “LABEL-FREE METHODS RELATED TO hERG POTASSIUM ION [sequence]” (CORNING INCORPORATED, priority 2009, published 2013).
“Also recorded” adds a separate entry of the source. Read-outs that look alike come from different tables or passages of the source.

How the values were obtained:
[1] = test system: mallotoxin DMR signal in HEK-hERG cells; type: cell-based, human
Source text: (§1) A “molecule modulation index” or like terms is an index to display the ability of the molecule to modulate the biosensor output signals of the panels of markers acting on the panel of cells. The modulation index is generated by normalizing a specific biosensor output signal parameter of a response of a cell upon stimulation with a marker in the presence of a molecule against that in the absence of any molecule.
(§2) Epic® wavelength interrogation system (Corning Inc., Corning, N.Y.) was used for whole cell sensing. This system consists of a temperature-control unit, an optical detection unit, and an on-board liquid handling unit with robotics. The detection unit is centered on integrated fiber optics, and enables kinetic measures of cellular responses with a time interval of ˜15 sec.
(§3) Cells were plated in 384-well Epic® cell culture treated plate (Corning Cat#5040) 16-20 hours before assay (15000 cells/well for HEK293 and HEK-hERG cells, 30000 cells/well for HT29 cells). For both HEK-hERG and its parental HEK293 cells, each well was coated with 10 μl 5 μg/ml fibronectin. One hour before assay, cells were washed twice on a BioTek ELx405 Select washer with Hank's Balanced Salt Solution (HBSS) containing 20 mM Hepes. Cells were incubated in 40 μl/well HBSS at 28° C. inside the Epic system for one hour. For each assay, a 2-min baseline was initiated, followed by addition of 10 μl compound solutions (5×) and the cell responses were recorded continuously for one hour.
(§4) All studies were carried out at a controlled temperature (28° C.). At least two independent sets of experiments, each with at least three replicates, were performed. […] All dose-dependent responses were analyzed using non-linear regression method with the GraphPad Prism 5.
(§5) The DMR modulation index was generated by normalizing the mallotoxin DMR signal in either cell line in the presence of compound […] to its corresponding DMR signal in the absence of the compound, and the percentage of modulation was based on the amplitude of the mallotoxin DMR signal at a specific time (−18 min after stimulation for HEK-hERG cells, and ˜50 min after stimulation for HT29 cells, respectively). Mallotoxin is known to display polypharmacology. It is also known to be a protein kinase C (PKC) inhibitor; and PKC is a downstream signaling component of hERG activation. Thus, it would be difficult or almost impossible to assign the mode(s) of action of mallotoxin to be a hERG activator when either cell line is individually assayed with the label-free biosensor (i.e., Epic® system). […] However, combining the primary DMR profiles of a compound across the three cell lines tested with the modulation index of the compound against the mallotoxin responses in both HT29 and […] cells can correctly identify whether the compound is a hERG activator or not. The results shown in FIG. 1 indicate that indeed mallotoxin is a hERG activator; and the activation of hERG can result in detectable biosensor responses in the two hERG expressing cell lines.

[2] = test system: mallotoxin DMR signal in HT29 cells; assay: DMR modulation index against the mallotoxin DMR signal in HT29 cells; type: cell-based, human
Source text: as §1, §2, §3, §4, §5

[3] = test system: hERG channel or hERG-associated signaling complex; assay: Classification of hERG modulators by label-free biosensor profiles across three cell lines plus mallotoxin modulation index; type: cell-based, human
Source text: The traditional hERG ion channel assay involves assaying ion flux such as Rb^+ flux using ion absorption assays, or assaying hERG currents directly using patch clamping methods. Traditionally, a molecule which causes increase in Rb^+ flux and/or hERG currents is referred to a hERG activator, while a molecule which inhibits Rb^+ flux and/or hERG currents is referred to a hERG inhibitor. […] These hERG activators may or may not result in detectable biosensor signals in cells, using label-free biosensor cellular assays. A hERG activator that results in a detectable biosensor signal in a hERG expressing cell via hERG or hERG signaling complex is also referred to a label-free biosensor hERG activator.
Disclosed are methods of classifying a molecule for modulating hERG activity, comprising the steps: a. incubating a molecule individually with at least three different types of cells consisting of a native cell endogenously expressing hERG, an engineered cell stably expressing hERG and its parental cell without expressing hERG, and b. monitoring the molecule induced cellular response on each cell type with a label-free biosensor cellular assay,
Also disclosed are methods, further comprising as steps c) incubating a label-free biosensor hERG activator with each cell type in the presence of the molecule, d. monitoring the label-free biosensor hERG activator induced cellular response on each cell type in the presence of the molecule, e. generating a biosensor modulation index of the molecule against the label-free biosensor hERG activator induced biosensor signals in the two hERG expressing cell types.
as §5

hERG channel [4] = target: T1, hERG channel (Homo sapiens, UniProt Q12809); assay: Rb+ flux assay using HEK-hERG cells; conditions: for effect on hERG ion flux (Rb+ flux, FIG. 6): HEK-hERG cells, overall statement, KCl and concentration not specified
Experimental: Briefly, 50,000 cells per well were plated in 96-well tissue culture treated plates 20 hours before assay. In the next day, cells were incubated with complete cell culture medium containing 5 mM RbCl for 3 hours at 37° C. with 5% CO2. Then compounds (10×) diluted in HBSS were added into the cell culture medium and cells were incubated at 37° C. with 5% CO2 for another hour. Cells were washed twice with Rb^+ free cell culture medium and incubated with 180 μl/well of cell culture medium containing different concentration of KCl for exactly 10 minutes. The supernatant from each well was transferred to a new 96 well plate immediately. Cells were lysed with 180 μl/well 0.5% Triton-100 in HBSS. The Rb^+ concentration of each sample was determined by ICR8000 (Aurora Biomed Inc.).

HEK-hERG cells = assay: Label-free RWG biosensor (Epic) DMR assay, agonism mode, HEK-hERG cells stably expressing hERG; type: cell-based, human
Experimental: as §2, §3, §4
(§6) Three different types of cells: human colon cancerous cell line HT-29, HEK293 and its engineered HEK-hERG cell lines were used. HT-29 is known to endogenously express hERG channels. HEK293 is a native cell line without endogenously expressed hERG channels, while HEK-hERG is an engineered HEK293 cells having stably expressed hERG channels. Mallotoxin, a newly discovered hERG activator, was used to activate hERG channels at or near physiological conditions (i.e., 1×HBSS buffered conditions).

hERG channel [5] = target: T1, hERG channel; assay: Automated patch clamp recording of hERG current using IonWorks, CHO-hERG cells
Experimental: CHO—K1 cells stably expressing hERG channel (CHO-hERG) were cultured in T175 flask till about 70% confluent. Cells were washed twice with PBS, then 2.5 ml 0.25% Trypsin/EDTA was mixed with 2.5 ml PBS and added to the T175 flask. Cells were incubated about 2 minutes with the diluted Trypsin/EDTA solution at 37° C., then were continuously incubated about 3 minutes at room temperature. 20 ml fresh medium were added to suspend the cells and transfer to a 50 ml tube. Cells were centrifuged down at 750 rpm for 5 minutes. The extra medium was removed and cells were resuspended in 6 ml External Buffer (137 mM NaCl, 4 mM KCl, 1.8 mM CaCl2, 1 mM MgCl2, 10 mM HEPES, 10 mM glucose, pH 7.4). Then cells were centrifuged again at 450 rpm for another 5 minutes. Finally cells were resuspended in 4 ml the External Buffer, cell number was counted using a hemacytometer. Cell suspension was diluted to 2.5×10^6 cells/ml with the External Buffer. 4 ml of the resuspended cells were added to the cell reservoir in IonWorks. The Internal solution used contains: 40 mM KCl, 100 mM K-Gluconate, 3.2 mM MgCl2, 2 mM CaCl2, 5 mM HEPES, pH 7.25 (adjusted with KOH). 5 mg Amphotericin B from 200 ul DMSO stock was added to 65 ml the Internal solution and mixed well to achieve electrical access to the interior of cells on the patch plate.
Compounds were prepared from 10 mM DMSO stock and diluted in the External Buffer to make 3× compound solution. […] of the 3× compound solution was transferred to a 384 well plate in Row A, B, C and D. PD11857 (Sigma-Aldrich), a reported hERG channel activator was used as activator positive control (final concentration 30 and 50 μM). hERG blocker dofetilide was used as blocker positive control (final concentration 100 nM). The final DMSO concentration in the IonWorks Quattro PatchPlate PPC plate (Cat#9000-0902, Molecular Devices) was 0.5%. Final compound concentration was 50 μM. Each compound was added to four wells of one PPC plate.
hERG currents were recorded on IonWorks Quattro (Molecular Devices). To record hERG current, the cells were clamped at −80 mV initially, then followed by a 5-s depolarization at +40 mV to activate the channels. Tail currents were measured during an ensuing return to −35 mV. Data analysis were done using IonWorks Quttro® System Software version 2.0.4.4. Data from wells with seal resistance less than 50 MΩ or hERG tail currents less than 0.1 nA were filtered out. […] Inhibitor hits were selected if hERG tail currents ratio (post/pre-compound) is less than mean-2SD of the average DMSO control.
To record hERG current, the cells were clamped at −80 mV initially, then followed by a 5-s depolarization at +40 mV to activate the channels (phase a in FIG. 10A). Tail currents were measured during an ensuing return to −35 mV for 2 seconds (phase b in FIG. 10A). Final holding potential at −70 mV (phase c in FIG. 10B).

phosphodiesterase 4 = assay: Effect on phosphodiesterase 4 activity (data not shown)
PKC = assay: Effect on PKC activity (data not shown)
HT29 cells = assay: Label-free RWG biosensor (Epic) DMR assay, agonism mode, HT29 cells endogenously expressing hERG; type: cell-based, human
Experimental: as §2, §3, §4, §6

HEK293 cells = assay: Label-free RWG biosensor (Epic) DMR assay, agonism mode, native HEK293 cells without hERG; type: cell-based, human
Experimental: as §2, §3
All studies were carried out at a controlled temperature (28° C.). At least two independent sets of experiments, each with at least three replicates, were performed. […] All dose-dependent responses were analyzed using non-linear regression method with the GraphPad Prism 5. […]

[6] = compound at 10 micromolar, mallotoxin 16 micromolar
[7] = 16 μM mallotoxin, blockers dose-dependent (30 μM, 30 min pretreatment in FIG. 8A)

T1 sequence (Q12809 whole entry): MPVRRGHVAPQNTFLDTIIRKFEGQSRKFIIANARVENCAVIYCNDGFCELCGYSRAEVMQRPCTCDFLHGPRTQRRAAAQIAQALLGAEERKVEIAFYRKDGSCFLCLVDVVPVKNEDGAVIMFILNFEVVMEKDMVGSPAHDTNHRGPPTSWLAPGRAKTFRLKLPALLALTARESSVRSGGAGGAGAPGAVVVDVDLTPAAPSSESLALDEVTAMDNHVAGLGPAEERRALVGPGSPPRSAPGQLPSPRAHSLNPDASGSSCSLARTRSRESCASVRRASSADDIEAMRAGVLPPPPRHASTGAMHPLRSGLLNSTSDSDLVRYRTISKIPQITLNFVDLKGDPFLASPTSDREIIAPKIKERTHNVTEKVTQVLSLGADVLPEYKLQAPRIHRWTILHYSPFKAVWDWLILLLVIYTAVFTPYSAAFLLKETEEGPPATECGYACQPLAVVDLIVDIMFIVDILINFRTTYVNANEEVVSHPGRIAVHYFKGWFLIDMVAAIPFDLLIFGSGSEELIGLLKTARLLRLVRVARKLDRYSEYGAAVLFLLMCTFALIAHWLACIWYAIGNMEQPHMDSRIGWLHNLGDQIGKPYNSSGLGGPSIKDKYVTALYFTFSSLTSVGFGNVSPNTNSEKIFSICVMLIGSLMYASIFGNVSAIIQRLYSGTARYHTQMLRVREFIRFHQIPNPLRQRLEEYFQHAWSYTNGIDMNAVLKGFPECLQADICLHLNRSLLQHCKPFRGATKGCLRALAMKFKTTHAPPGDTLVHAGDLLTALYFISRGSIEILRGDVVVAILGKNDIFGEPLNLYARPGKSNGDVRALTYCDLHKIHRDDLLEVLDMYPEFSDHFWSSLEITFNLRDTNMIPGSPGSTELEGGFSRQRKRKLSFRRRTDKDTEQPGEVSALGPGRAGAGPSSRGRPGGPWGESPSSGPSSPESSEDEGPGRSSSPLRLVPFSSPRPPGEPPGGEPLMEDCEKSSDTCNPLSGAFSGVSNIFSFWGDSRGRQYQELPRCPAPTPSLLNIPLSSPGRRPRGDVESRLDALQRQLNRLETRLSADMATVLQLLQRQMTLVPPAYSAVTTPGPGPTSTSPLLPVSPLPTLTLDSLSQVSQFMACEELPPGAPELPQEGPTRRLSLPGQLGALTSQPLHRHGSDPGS

Compound: COc1cc(N)c(Cl)cc1C(=O)NC1CCN(CCCOc2ccc(F)cc2)CC1OC (stereo not shown) [cisapride]
- effect of pretreatment on the mallotoxin DMR signal in HEK-hERG cells [1]: dose-dependent suppression

Compound: O=C(O)c1cc(-c2ccc(F)cc2F)ccc1O [diflunisal]
- modulation of the mallotoxin DMR signal in HT29 cells [2, 6]: completely desensitized
- score of modulation index in coordination, HEK-hERG coordinate ([1]; human): 1
- hERG pathway activity class by label-free biosensor [3]: hERG pathway activator
- Rb+ signal in HEK-hERG cells (hERG channel [4]; 5 mM KCl, compound at 10 or 50 μM): only at 50 μM triggered a detectable increase
- effect on hERG ion flux (Rb+ flux, FIG. 6) (hERG channel [4]): weak hERG ion flux activator

Compound: N#CC(C#N)=C(N)/C(C#N)=C/c1cc(O)c(O)c(O)c1 [tyrphostin 51]
- DMR signal in HEK-hERG cells (HEK-hERG cells; compound at 10 μM): robust but different DMR signals
- modulation of the mallotoxin DMR signal in HT29 cells [2, 6]: only partially attenuated
- effect on hERG tail current (hERG channel [5]; 50 μM, tail current at return to −35 mV): significantly suppressed
- effect on hERG current (hERG channel [5]; final compound concentration 50 μM): hERG current inhibitor
- hERG pathway activity class by label-free biosensor [3]: hERG pathway activator
- effect on activity of phosphodiesterase 4 (phosphodiesterase 4): suppresses the activity
- effect on activity of PKC (PKC): suppresses the activity
- effect on hERG ion flux (Rb+ flux, FIG. 6) (hERG channel [4]): little impact; also recorded: weak hERG ion flux activator

Compound: C=C(C)[C@H]1O[C@H]2CC[C@@]3(C)[C@@](O)(CC[C@H]4[C@@H]5OC(C)(C)[C@H]6C[C@@H]7C(=C)Cc8c(Cl)cc9[nH]c(c5c9c8[C@@]76O)[C@@]43C)[C@@]23O[C@H]3[C@H]1O [penitrem A]
- effect of pretreatment on the mallotoxin DMR signal in HEK-hERG cells [1, 7]: no effect

Compound: CC(C)(O)[C@H]1O[C@H]2CC[C@@]3(C)[C@@](O)(CC[C@H]4Cc5c([nH]c6ccccc56)[C@@]43C)C2=CC1=O [paxilline]
- effect of pretreatment on the mallotoxin DMR signal in HEK-hERG cells [1, 7]: no effect

Compound: O=C(Nc1cc(C(F)(F)F)ccc1O)Nc1cc(C(F)(F)F)ccc1O [NS1643]
- DMR signal in HEK-hERG cells (HEK-hERG cells; concentration not given, data not shown): induced a detectable DMR signal

Compound: O=C(O)c1cccnc1Nc1cccc(C(F)(F)F)c1 [niflumic acid]
- hERG pathway activity class by label-free biosensor [3]: hERG pathway activator

Compound: O=C1NCCN1CCN1CCC(c2cn(-c3ccc(F)cc3)c3ccc(Cl)cc23)CC1 [sertindole]
- DMR signal in HT29 cells (HT29 cells): did not trigger any DMR signals
- DMR signal in HEK-hERG cells (HEK-hERG cells): did not trigger any DMR signals
- DMR signal in HEK293 cells (HEK293 cells): did not trigger any DMR signals
- modulation of the mallotoxin DMR signal in HT29 cells ([2]; dose dependent, concentrations not given): attenuated

Compound: N#CC(C#N)=Cc1ccc([N+](=O)[O-])c(O)c1 [AG-126]
- modulation of the mallotoxin DMR signal in HT29 cells [2, 6]: only partially attenuated
- hERG pathway activity class by label-free biosensor [3]: hERG pathway activator, specifically in the endogenous hERG channel complex in HT29
- effect on hERG ion flux (Rb+ flux, FIG. 6) (hERG channel [4]): little or no impact; also recorded: non-effector in hERG ion flux
